Target: T1, IRAK4 (Homo sapiens, UniProt Q9NWZ3)
T1 sequence (Q9NWZ3 1-460): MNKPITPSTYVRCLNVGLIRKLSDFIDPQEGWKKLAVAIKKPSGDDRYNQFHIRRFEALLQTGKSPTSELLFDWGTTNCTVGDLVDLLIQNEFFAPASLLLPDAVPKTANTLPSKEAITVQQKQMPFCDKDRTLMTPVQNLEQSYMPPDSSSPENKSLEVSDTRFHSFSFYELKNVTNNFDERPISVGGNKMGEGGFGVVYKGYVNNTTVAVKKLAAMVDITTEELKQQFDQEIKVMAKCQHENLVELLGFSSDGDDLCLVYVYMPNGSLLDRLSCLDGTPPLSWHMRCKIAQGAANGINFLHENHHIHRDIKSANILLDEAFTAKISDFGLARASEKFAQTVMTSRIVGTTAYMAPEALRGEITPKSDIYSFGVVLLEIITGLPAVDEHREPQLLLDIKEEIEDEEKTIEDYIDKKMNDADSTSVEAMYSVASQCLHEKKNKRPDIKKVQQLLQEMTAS
Experiment: OCI-LY-10 degradation assay (western blot, % IRAK4 degraded after 4 hours)
Assay type: cell-based
Design: endogenous in cells; host or cells: OCI-LY10
Settings: OCI-LY10 cells; for OCI-LY10 % IRAK4 Degradation (0.01 uM) / OCI-LY10 % IRAK4 Degradation (0.1 uM) / OCI-LY10 % IRAK4 Degradation (1 uM): 4 hours; for OCI-LY10 % IRAK4 Degradation (0.01 uM): 0.01 uM compound; for OCI-LY10 % IRAK4 Degradation (0.1 uM): 0.1 uM compound; for OCI-LY10 % IRAK4 Degradation (1 uM): 1 uM compound; for OCI-LY10 % IRAK4 Degradation: IRAK4 degraded after 4 hours, western blot
Procedure, shortened: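 IRAK4 loss after 4 h at 37° C was scored A (>50%), B (>20-50%) or C (<20%) from infrared western blots of RIPA lysates, 20-25 μg protein per lane. Compound was applied at 0.003-10 μM final to OCI-LY10 cells cultured in RPMI-1640 with 20% FBS and 55 μM 2-ME.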

OCI-LY10 % IRAK4 Degradation (0.01 uM) | OCI-LY10 % IRAK4 Degradation (0.1 uM) | OCI-LY10 % IRAK4 Degradation (1 uM) | OCI-LY10 % IRAK4 Degradation | Structure (SMILES)
B (>20-50% degradation) | A (>50% degradation) | A (>50% degradation) | – | NC(=O)c1nn(-c2ccc(CNCCOCCOCCOCCOCC#Cc3cccc4c3C(=O)N(C3CCC(=O)NC3=O)C4=O)cc2)cc1NC(=O)c1coc(-c2ccnc(NCC(F)(F)F)c2)n1 (centres unmarked) [I-323]
– | – | – | B (>20-50% degradation) | N#Cc1cnc2c(cnn2-c2cc(NC3CC3)c(C(=O)N[C@H]3CC[C@H](COCCOCCOCCOCCNC(=O)COc4cccc5c4C(=O)N(C4CCC(=O)NC4=O)C5=O)CC3)cn2)c1 (some centres unmarked) [I-18]
– | – | – | C (<20% degradation) | N#Cc1cnc2c(cnn2-c2cc(NC3CC3)c(C(=O)NCC(F)COCCNc3cccc4c3C(=O)N(C3CCC(=O)NC3=O)C4=O)cn2)c1 (centres unmarked) [I-82]
C (<20% degradation) | B (>20-50% degradation) | A (>50% degradation) | – | O=C1CCC(N2C(=O)c3ccc(NCCOCCN4CCN(CCOCCNCc5ccc(-n6cc(NC(=O)c7coc(-c8ccnc(NCC9CC9)c8)n7)c(C(F)F)n6)cc5)CC4)cc3C2=O)C(=O)N1 (centres unmarked) [I-349]
– | – | – | C (<20% degradation) | O=C1CCC(N2C(=O)c3cccc(NCCOCCOCC(F)CNC(=O)c4cnc(Nc5ccc6cnccc6n5)cc4NC4CC4)c3C2=O)C(=O)N1 (centres unmarked) [I-61]
– | – | – | C (<20% degradation) | CC(C)(OCCCOCCCNc1cccc2c1C(=O)N(C1CCC(=O)NC1=O)C2=O)C(F)CNC(=O)c1cnc(-n2ncc3cc(C#N)cnc32)cc1NC1CC1 (centres unmarked) [I-86]
C (<20% degradation) | B (>20-50% degradation) | A (>50% degradation) | – | NC(=O)c1nn(-c2ccc(C(=O)NCCOCCOCCOCCCc3cccc4c3CN(C3CCC(=O)NC3=O)C4=O)cc2)cc1NC(=O)c1coc(-c2ccnc(NCC3CC3)c2)n1 (centres unmarked) [I-238]
– | – | – | C (<20% degradation) | O=C1CCC(N2C(=O)c3cccc(NCCOCCOCCOC[C@H]4C[C@H](NC(=O)c5cnc(Nc6ccc7cnccc7n6)cc5NC5CC5)C4)c3C2=O)C(=O)N1 (some centres unmarked) [I-31]
C (<20% degradation) | B (>20-50% degradation) | B (>20-50% degradation) | – | CN(CCCCCCc1cccc2c1C(=O)N(C1CCC(=O)NC1=O)C2=O)Cc1ccc(-n2cc(NC(=O)c3coc(-c4ccnc(NCC5CC5)c4)n3)c(C(N)=O)n2)cc1 (centres unmarked) [I-314]
C (<20% degradation) | B (>20-50% degradation) | A (>50% degradation) | – | O=C1CCC(N2C(=O)c3ccc(NC4CN(CCOCCOCCNCc5ccc(-n6cc(NC(=O)c7coc(-c8ccnc(NCC9CC9)c8)n7)c(C(F)F)n6)cc5)C4)cc3C2=O)C(=O)N1 (centres unmarked) [I-339]
C (<20% degradation) | A (>50% degradation) | A (>50% degradation) | – | CN(CCOCCOCCCc1ccc2c(c1)C(=O)N(C1CCC(=O)NC1=O)C2=O)Cc1ccc(-n2cc(NC(=O)c3coc(-c4ccnc(NCC5CC5)c4)n3)c(C(F)F)n2)cc1 (centres unmarked) [I-310]
– | – | – | C (<20% degradation) | CC[C@@H]1[C@H](F)C(=O)N[C@@H]1COc1nccc2cc(C(=O)NCCOCCOCCNc3cccc4c3C(=O)N(C3CCC(=O)NC3=O)C4=O)c(OC)cc12 (some centres unmarked) [I-87]
– | – | – | C (<20% degradation) | N#Cc1ccc2ncc(-c3cccc(NC4CCN(CCCCCOCCOCCCCCNC(=O)COc5cccc6c5C(=O)N(C5CCC(=O)NC5=O)C6=O)C4)n3)n2c1 (centres unmarked) [I-204]
– | – | – | C (<20% degradation) | N#Cc1cnc2c(cnn2-c2cc(NC3CC3)c(-c3cn(CCOCCOCCOCCOCCOCCNc4cccc5c4C(=O)N(C4CCC(=O)NC4=O)C5=O)nn3)cn2)c1 (centres unmarked) [I-176, 1-[4-(Cyclopropylamino)-5-[1-[2-[2-[2-[2-[2-[2-[[2-(2,6-dioxo-3-piperidyl)-1,3-dioxo-isoindolin-4-yl]amino]ethoxy]ethoxy]ethoxy]ethoxy]ethoxy]ethyl]triazol-4-yl]-2-pyridyl]pyrazolo[3,4-b]pyridine-5-carbonitrile]

From patent publication US10874743B2, “IRAK degraders and uses thereof” (Kymera Therapeutics, Inc., priority 2017, dated 2020)
